Values after ≈ are worked out from the molar mass of the structure shown. Active and inactive are the calls of the source. The calls are words filed in the database; no cut-off is given here.
What was measured:
Vero = assay: Cytotoxicity against Chlorocebus aethiops (African green monkey) Vero cells assessed as inhibition of cell viability after 96 hr by MTT assay; type: cell-based; conditions: Chlorocebus sabaeus
Pseudomonas aeruginosa = assay: Antibacterial activity against Pseudomonas aeruginosa ATCC 25619 assessed as growth inhibition after 18 hr by broth microdilution method; type: functional; conditions: ATCC 25619, 18 h
Staphylococcus aureus = assay: Antibacterial activity against Staphylococcus aureus ATCC 25365 assessed as growth inhibition after 18 hr by broth microdilution method; type: functional; conditions: ATCC 25365, 18 h
Corynebacterium = assay: Antibacterial activity against Corynebacterium ATCC 29355 assessed as growth inhibition after 18 hr by broth microdilution method; type: functional; conditions: ATCC 29355, 18 h
[1] = Selectivity index, ratio of IC50 for african green monkey Vero cells to MIC for Mycobacterium tuberculosis H37Rv; type: toxicity, cell-based; conditions: read-out: Selectivity Index
Escherichia coli = assay: Antibacterial activity against Escherichia coli MTCC 1089 assessed as growth inhibition after 18 hr by broth microdilution method; type: functional; conditions: MTCC 1089, 18 h
[2] = system: Mycobacterium tuberculosis; assay: Antimycobacterial activity against Mycobacterium tuberculosis H37Rv assessed as growth inhibition after 21 days by broth dilution assay; type: functional

Which results are given for `O=C(CSc1nnc(N2CCN(c3cc4c(cc3F)c(=O)c(C(=O)O)cn4C3CC3)CC2)s1)c1ccc(Br)cc1`?
IC50 (Vero): 6 µg/mL (≈ 9.31 µM); MIC (Pseudomonas aeruginosa): > 64 µg/mL; MIC (Staphylococcus aureus): 8 µg/mL (≈ 12.4 µM); MIC (Corynebacterium): 4 µg/mL (≈ 6.21 µM); selectivity ratio [1]: 3; MIC (Escherichia coli): 16 µg/mL (≈ 24.8 µM); MIC ([2]; 504 h): 2 µg/mL (≈ 3.1 µM)

With `O=C(CSc1nnc(N2CCN(c3cc4c(cc3F)c(=O)c(C(=O)O)cn4C3CC3)CC2)s1)c1ccccc1` as the molecule, how does the MIC (Pseudomonas aeruginosa) read?
The MIC was > 64 µg/mL.

And the MIC (Staphylococcus aureus)?
The MIC was 16 µg/mL (≈ 28.3 µM).

And the MIC (Corynebacterium)?
Its MIC is 16 µg/mL (≈ 28.3 µM).

And the MIC (Escherichia coli)?
Its MIC is 32 µg/mL (≈ 56.6 µM).

What about the MIC [2] of the same molecule?
Its MIC is “inactive”.

Which IC50 (Vero) does the source give for `O=C(CSc1nnc(N2CCN(c3cc4c(cc3F)c(=O)c(C(=O)O)cn4C3CC3)CC2)s1)c1ccc(Cl)cc1` here?
Its IC50 is 3 µg/mL (≈ 5 µM).

And the MIC (Pseudomonas aeruginosa)?
The MIC was > 64 µg/mL.

And the MIC (Staphylococcus aureus)?
The MIC was 4 µg/mL (≈ 6.67 µM).

What about the MIC (Corynebacterium) of the same molecule?
Its MIC is 2 µg/mL (≈ 3.33 µM).

And the selectivity ratio [1]?
The selectivity ratio was 3.

What about the MIC (Escherichia coli) of the same molecule?
Its MIC is 16 µg/mL (≈ 26.7 µM).

What about the MIC ([2]; 504 h) of the same molecule?
Its MIC is 1 µg/mL (≈ 1.67 µM).

Which MIC (Pseudomonas aeruginosa) does the source give for `CCn1cc(C(=O)O)c(=O)c2cc(F)c(N3CCNCC3)cc21` [NORFLOXACIN] here?
The MIC was 4 µg/mL (≈ 12.5 µM).

And the MIC (Staphylococcus aureus)?
The MIC was 2 µg/mL (≈ 6.26 µM).

What about the MIC (Corynebacterium) of the same molecule?
The MIC was 2 µg/mL (≈ 6.26 µM).

And the MIC (Escherichia coli)?
The MIC was 2 µg/mL (≈ 6.26 µM).

Which results are given for `CCn1cc(C(=O)O)c(=O)c2cc(F)c(N3CCN(c4nnc(SCC(=O)c5ccc(Cl)cc5)s4)CC3)cc21`?
IC50 (Vero): 4 µg/mL (≈ 6.8 µM); MIC (Pseudomonas aeruginosa): > 64 µg/mL; MIC (Staphylococcus aureus): 4 µg/mL (≈ 6.8 µM); MIC (Corynebacterium): 2 µg/mL (≈ 3.4 µM); selectivity ratio [1]: 2.67; MIC (Escherichia coli): 32 µg/mL (≈ 54.4 µM); MIC ([2]; 504 h): 1.5 µg/mL (≈ 2.55 µM)

What does the source list for `CCn1cc(C(=O)O)c(=O)c2cc(F)c(N3CCN(c4nnc(SCC(=O)c5ccc([N+](=O)[O-])cc5)s4)CC3)cc21`?
IC50 (Vero): > 10.2 µg/mL; MIC (Pseudomonas aeruginosa): > 64 µg/mL; MIC (Staphylococcus aureus): 2 µg/mL (≈ 3.34 µM); MIC (Corynebacterium): 1 µg/mL (≈ 1.67 µM); selectivity ratio [1]: > 10.2; MIC (Escherichia coli): 16 µg/mL (≈ 26.7 µM); MIC ([2]; 504 h): 1 µg/mL (≈ 1.67 µM)

With `COc1ccc(C(=O)CSc2nnc(N3CCN(c4cc5c(cc4F)c(=O)c(C(=O)O)cn5C4CC4)CC3)s2)cc1` as the molecule, how does the MIC (Pseudomonas aeruginosa) read?
Its MIC is > 64 µg/mL.

What about the MIC (Staphylococcus aureus) of the same molecule?
The MIC was 2 µg/mL (≈ 3.36 µM).

And the MIC (Corynebacterium)?
Its MIC is 1 µg/mL (≈ 1.68 µM).

What about the MIC (Escherichia coli) of the same molecule?
Its MIC is 32 µg/mL (≈ 53.7 µM).

And the MIC ([2]; 504 h)?
Its MIC is 10 µg/mL (≈ 16.8 µM).

Which MIC (Pseudomonas aeruginosa) does the source give for `CCn1cc(C(=O)O)c(=O)c2cc(F)c(N3CCN(c4nnc(SCC(=O)c5ccc(F)cc5)s4)CC3)cc21` here?
The MIC was 32 µg/mL (≈ 56 µM).

And the MIC (Staphylococcus aureus)?
The MIC was 4 µg/mL (≈ 7 µM).

And the MIC (Corynebacterium)?
The MIC was 2 µg/mL (≈ 3.5 µM).

What about the MIC (Escherichia coli) of the same molecule?
The MIC was > 64 µg/mL.

What about the MIC ([2]; 504 h) of the same molecule?
The MIC was 5 µg/mL (≈ 8.75 µM).

Which MIC (Pseudomonas aeruginosa) does the source give for `CCn1cc(C(=O)O)c(=O)c2cc(F)c(N3CCN(c4nnc(SCC(=O)c5ccc(C)cc5)s4)CC3)cc21` here?
The MIC was > 64 µg/mL.

And the MIC (Staphylococcus aureus)?
The MIC was 8 µg/mL (≈ 14.1 µM).

What about the MIC (Corynebacterium) of the same molecule?
The MIC was 4 µg/mL (≈ 7.05 µM).

And the MIC (Escherichia coli)?
Its MIC is > 64 µg/mL.

And the MIC [2]?
The MIC was “inactive”.

For `O=C(CSc1nnc(N2CCN(c3cc4c(cc3F)c(=O)c(C(=O)O)cn4C3CC3)CC2)s1)c1ccc(F)cc1`, which MIC (Pseudomonas aeruginosa) is on record?
Its MIC is 32 µg/mL (≈ 54.8 µM).

What about the MIC (Staphylococcus aureus) of the same molecule?
The MIC was 8 µg/mL (≈ 13.7 µM).

What about the MIC (Corynebacterium) of the same molecule?
Its MIC is 4 µg/mL (≈ 6.85 µM).

And the MIC (Escherichia coli)?
Its MIC is 16 µg/mL (≈ 27.4 µM).

What about the MIC ([2]; 504 h) of the same molecule?
Its MIC is 5 µg/mL (≈ 8.57 µM).

With `O=C(CSc1nnc(N2CCN(c3cc4c(cc3F)c(=O)c(C(=O)O)cn4C3CC3)CC2)s1)c1ccc([N+](=O)[O-])cc1` as the molecule, how does the IC50 (Vero) read?
The IC50 was > 6.1 µg/mL.

And the MIC (Pseudomonas aeruginosa)?
The MIC was > 64 µg/mL.

And the MIC (Staphylococcus aureus)?
Its MIC is 1 µg/mL (≈ 1.64 µM).

What about the MIC (Corynebacterium) of the same molecule?
Its MIC is 0.5 µg/mL (≈ 0.819 µM).

What about the selectivity ratio [1] of the same molecule?
Its selectivity ratio is > 12.2.

And the MIC (Escherichia coli)?
The MIC was 32 µg/mL (≈ 52.4 µM).

And the MIC ([2]; 504 h)?
Its MIC is 0.5 µg/mL (≈ 0.819 µM).

Which IC50 (Vero) does the source give for `CCn1cc(C(=O)O)c(=O)c2cc(F)c(N3CCN(c4nnc(SCC(=O)c5ccc(Br)cc5)s4)CC3)cc21` here?
Its IC50 is 5 µg/mL (≈ 7.9 µM).

What about the MIC (Pseudomonas aeruginosa) of the same molecule?
The MIC was > 64 µg/mL.

And the MIC (Staphylococcus aureus)?
The MIC was 8 µg/mL (≈ 12.6 µM).

What about the MIC (Corynebacterium) of the same molecule?
Its MIC is 4 µg/mL (≈ 6.32 µM).

What about the selectivity ratio [1] of the same molecule?
Its selectivity ratio is 2.

What about the MIC (Escherichia coli) of the same molecule?
Its MIC is 32 µg/mL (≈ 50.6 µM).

What about the MIC ([2]; 504 h) of the same molecule?
Its MIC is 2.5 µg/mL (≈ 3.95 µM).

Which MIC (Pseudomonas aeruginosa) does the source give for `CCn1cc(C(=O)O)c(=O)c2cc(F)c(N3CCN(c4nnc(SCC(=O)c5ccccc5)s4)CC3)cc21` here?
The MIC was > 64 µg/mL.

And the MIC (Staphylococcus aureus)?
The MIC was 32 µg/mL (≈ 57.8 µM).

And the MIC (Corynebacterium)?
Its MIC is 16 µg/mL (≈ 28.9 µM).

What about the MIC (Escherichia coli) of the same molecule?
Its MIC is > 64 µg/mL.

What about the MIC [2] of the same molecule?
Its MIC is “inactive”.

Which IC50 (Vero) does the source give for `NNC(=O)c1ccncc1` [ISONIAZID] here?
Its IC50 is > 12 µg/mL.

And the MIC ([2]; 504 h)?
Its MIC is 1.5 µg/mL (≈ 10.9 µM).

Which results are given for `CO[C@H]1/C=C/O[C@@]2(C)Oc3c(C)c(O)c4c(O)c(c(/C=N/N5CCN(C)CC5)c(O)c4c3C2=O)NC(=O)/C(C)=C\C=C\[C@H](C)[C@H](O)[C@@H](C)[C@@H](O)[C@@H](C)[C@H](OC(C)=O)[C@@H]1C` [RIFAMPIN]?
IC50 (Vero): > 10 µg/mL; selectivity ratio [1]: > 10; MIC ([2]; 504 h): 1 µg/mL (≈ 1.22 µM)

For `Cc1ccc(C(=O)CSc2nnc(N3CCN(c4cc5c(cc4F)c(=O)c(C(=O)O)cn5C4CC4)CC3)s2)cc1`, which MIC (Pseudomonas aeruginosa) is on record?
The MIC was > 64 µg/mL.

What about the MIC (Staphylococcus aureus) of the same molecule?
The MIC was 8 µg/mL (≈ 13.8 µM).

And the MIC (Corynebacterium)?
The MIC was 4 µg/mL (≈ 6.9 µM).

What about the MIC (Escherichia coli) of the same molecule?
The MIC was 16 µg/mL (≈ 27.6 µM).

And the MIC [2]?
The MIC was “inactive”.

Which results are given for `O=C(O)c1cn(C2CC2)c2cc(N3CCNCC3)c(F)cc2c1=O` [CIPROFLOXACIN]?
MIC (Pseudomonas aeruginosa): 4 µg/mL (≈ 12.1 µM); MIC (Staphylococcus aureus): 2 µg/mL (≈ 6.04 µM)

For `CCn1cc(C(=O)O)c(=O)c2cc(F)c(N3CCN(c4nnc(SCC(=O)c5ccc(OC)cc5)s4)CC3)cc21`, which MIC (Pseudomonas aeruginosa) is on record?
Its MIC is > 64 µg/mL.

What about the MIC (Staphylococcus aureus) of the same molecule?
Its MIC is 2 µg/mL (≈ 3.43 µM).

What about the MIC (Corynebacterium) of the same molecule?
Its MIC is 1 µg/mL (≈ 1.71 µM).

And the MIC (Escherichia coli)?
The MIC was > 64 µg/mL.

And the MIC ([2]; 504 h)?
The MIC was 10 µg/mL (≈ 17.1 µM).

— ChEMBL document CHEMBL3045188, “Synthesis and antibacterial, antimycobacterial and docking studies of novel N-piperazinyl fluoroquinolones” (Med Chem Res, 2013)
